Measurements from patent US6914045B2, “Glycopeptide antibiotics” (Wyeth Holdings Corporation, priority 2001, dated 2005).
In brackets after ≈: the same amount, converted by molar mass.

Columns and labels:
Experiment in all cases: in vitro antibacterial evaluation, MIC by broth dilution
Assay type in all cases: cell-based
[1] = test system: Staphylococcus sp.; conditions: broth dilution, 18 hours at 35° C.
Procedure, shortened: (§1)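 Inoculum 5×10^5 CFU/mL; concentrations 64 to 0.06 μg/mL; MIC defined as lowest inhibitory level. Conducted by broth dilution under NCCLS guidelines.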

[2] = test system: Enterococcus sp.; conditions: broth dilution, 18 hours at 35° C.
Procedure, shortened: as §1

[3] = test system: Escherichia coli; conditions: 18 hours at 35° C., strain ATCC 25922
Procedure, shortened: as §1

[4] = test system: Streptococcus sp.; conditions: broth dilution, 18 hours at 35° C.
Procedure, shortened: as §1

[5] = Enterococcus faecalis (ATCC 29212)
[6] = Enterococcus faecalis (GC 2242)
[7] = Enterococcus faecalis (GC 4552)
[8] = Enterococcus faecalis (GC 4553)
[9] = Enterococcus faecalis (GC 4554)
[10] = Streptococcus agalactiae (GC 4564)
[11] = Streptococcus pneumoniae (GC 4565)
[12] = Streptococcus pyogenes (ID-3187)

For `CC(c1ccccc1)C1NC(=O)CNC(=O)C(CO)NC(=O)C(C(O)C2CNC(=N)N2C2OC(CO)C(O)C(O)C2O)NC(=O)C(C(O)C2CNC(=N)N2)NC(=O)C(Cc2ccc(OC3OC(COC(=O)OCc4ccccc4)C(OC4OC(CO)C(O)C(O)C4O)C(O)C3O)cc2)NC1=O` (stereo not drawn) [Example 101, Cyclo[glycyl-β-methylphenylalanyl-O-[4-O-hexopyranosyl-6-O-[(phenylmethoxy)carbonyl]-hexopyranosyl]tyrosyl-3-(2-iminoimidazolidin-4-yl)seryl-3-(3-hexopyranosyl-2-iminoimidazolidin-4-yl)serylseryl]], the “MIC Coagulase Negative Staphylococcus (GC 4547)” value [1] was 2 µg/mL (≈ 1.4 µM), the “MIC Coagulase Negative Staphylococcus (GC 4548)” value [1] was 2 µg/mL (≈ 1.4 µM) and the “MIC Coagulase Negative Staphylococcus (GC 4549)” value [1] was 1 µg/mL (≈ 0.7 µM). The “MIC Coagulase Negative Staphylococcus (GC 4551)” value [1] was 8 µg/mL (≈ 5.6 µM), the “MIC Coagulase Negative Staphylococcus (ID-3941)” value [1] was 1 µg/mL (≈ 0.7 µM) and the “MIC Staphylococcus aureus (ATCC 29213)” value [1] was 4 µg/mL (≈ 2.8 µM). For the same compound, the “MIC Staphylococcus aureus (GC 1131)” value [1] was 4 µg/mL (≈ 2.8 µM), the “MIC Staphylococcus aureus (GC 4541)” value [1] was 4 µg/mL (≈ 2.8 µM) and the “MIC Staphylococcus aureus (GC 4542)” value [1] was 8 µg/mL (≈ 5.6 µM). For the same compound, the “MIC Staphylococcus aureus (GC 4544)” value [1] was 8 µg/mL (≈ 5.6 µM), the “MIC Staphylococcus aureus (GC 4545)” value [1] was 4 µg/mL (≈ 2.8 µM) and the “MIC Staphylococcus aureus-SMITH (GC 4543)” value [1] was 4 µg/mL (≈ 2.8 µM). For the same compound, the “MIC Staphylococcus haemolyticus (GC 4546)” value [1] was 4 µg/mL (≈ 2.8 µM), the “MIC Staphylococcus haemolyticus (GC 4546)” value ([1]; strain GC 4546) was 4 µg/mL (≈ 2.8 µM) and the “MIC Coagulase Negative Staphylococcus (GC 4547)” value ([1]; strain GC 4547) was 2 µg/mL (≈ 1.4 µM). The “MIC Coagulase Negative Staphylococcus (GC 4548)” value ([1]; strain GC 4548) was 2 µg/mL (≈ 1.4 µM), the “MIC Coagulase Negative Staphylococcus (GC 4549)” value ([1]; strain GC 4549) was 1 µg/mL (≈ 0.7 µM) and the “MIC Coagulase Negative Staphylococcus (GC 4551)” value ([1]; strain GC 4551) was 8 µg/mL (≈ 5.6 µM). The “MIC Coagulase Negative Staphylococcus (ID-3941)” value ([1]; strain ID-3941) was 1 µg/mL (≈ 0.7 µM), the “MIC Staphylococcus aureus-SMITH (GC 4543)” value ([1]; strain SMITH GC 4543) was 4 µg/mL (≈ 2.8 µM) and the “MIC Staphylococcus aureus (ATCC 29213)” value ([1]; strain ATCC 29213) was 4 µg/mL (≈ 2.8 µM). The “MIC Staphylococcus aureus (GC 1131)” value ([1]; strain GC 1131) was 4 µg/mL (≈ 2.8 µM), the “MIC Staphylococcus aureus (GC 4541)” value ([1]; strain GC 4541) was 4 µg/mL (≈ 2.8 µM) and the “MIC Staphylococcus aureus (GC 4542)” value ([1]; strain GC 4542) was 8 µg/mL (≈ 5.6 µM). For the same compound, the “MIC Staphylococcus aureus (GC 4544)” value ([1]; strain GC 4544) was 8 µg/mL (≈ 5.6 µM), the “MIC Staphylococcus aureus (GC 4545)” value ([1]; strain GC 4545) was 4 µg/mL (≈ 2.8 µM) and the “MIC Enterococcus avium (GC 4558)” value ([2]; Enterococcus avium (GC 4558)) was 32 µg/mL (≈ 22.4 µM). The “MIC Enterococcus faecalis (ATCC 29212)” value [2, 5] was 32 µg/mL (≈ 22.4 µM), the “MIC Enterococcus faecalis (GC 2242)” value [2, 6] was 16 µg/mL (≈ 11.2 µM) and the “MIC Enterococcus faecalis (GC 4552)” value [2, 7] was 64 µg/mL (≈ 44.8 µM). For the same compound, the “MIC Enterococcus faecalis (GC 4553)” value [2, 8] was 32 µg/mL (≈ 22.4 µM), the “MIC Enterococcus faecalis (GC 4554)” value [2, 9] was 64 µg/mL (≈ 44.8 µM) and the “MIC Enterococcus faecium (GC 2243)” value ([2]; Enterococcus faecium (GC 2243)) was 32 µg/mL (≈ 22.4 µM). The “MIC Enterococcus faecium (GC 4556)” value ([2]; Enterococcus faecium (GC 4556)) was 32 µg/mL (≈ 22.4 µM), the “MIC Enterococcus faecium (GC 4557)” value ([2]; Enterococcus faecium (GC 4557)) was 2 µg/mL (≈ 1.4 µM) and the “MIC Enterococcus faecalis (ATCC 29212)” value ([2]; strain ATCC 29212) was 32 µg/mL (≈ 22.4 µM). The “MIC Enterococcus faecalis (GC 2242)” value ([2]; strain GC 2242) was 16 µg/mL (≈ 11.2 µM), the “MIC Enterococcus faecium (GC 2243)” value ([2]; strain GC 2243) was 32 µg/mL (≈ 22.4 µM) and the “MIC Enterococcus faecalis (GC 4552)” value ([2]; strain GC 4552) was 64 µg/mL (≈ 44.8 µM). The “MIC Enterococcus faecalis (GC 4553)” value ([2]; strain GC 4553) was 32 µg/mL (≈ 22.4 µM), the “MIC Enterococcus faecalis (GC 4554)” value ([2]; strain GC 4554) was 64 µg/mL (≈ 44.8 µM) and the “MIC Enterococcus faecium (GC 4556)” value ([2]; strain GC 4556) was 32 µg/mL (≈ 22.4 µM). The “MIC Enterococcus faecium (GC 4557)” value ([2]; strain GC 4557) was 2 µg/mL (≈ 1.4 µM), the “MIC Enterococcus avium (GC 4558)” value ([2]; strain GC 4558) was 32 µg/mL (≈ 22.4 µM) and the “MIC Escherichia coli (ATCC 25922)” value [3] was >64 µg/mL. For the same compound, the “MIC Streptococcus agalactiae (GC 4564)” value [4, 10] was 2 µg/mL (≈ 1.4 µM), the “MIC Streptococcus pneumoniae (GC 4565)” value [4, 11] was <0.5 µg/mL and the “MIC Streptococcus pyogenes (ID-3187)” value [4, 12] was 2 µg/mL (≈ 1.4 µM). For the same compound, the “MIC Streptococcus agalactiae (GC 4564)” value ([4]; strain GC 4564) was 2 µg/mL (≈ 1.4 µM), the “MIC Streptococcus pneumoniae (GC 4565)” value ([4]; strain GC 4565) was <0.5 µg/mL and the “MIC Streptococcus pyogenes (ID-3187)” value ([4]; strain ID-3187) was 2 µg/mL (≈ 1.4 µM).
For `CC(c1ccccc1)C1NC(=O)CNC(=O)C(CO)NC(=O)C(C(O)C2CNC(=N)N2C2OC(CO)C(O)C(O)C2O)NC(=O)C(C(O)C2CNC(=N)N2)NC(=O)C(Cc2ccc(OC3OC(CO)C(OC4OC(COC(=O)OCc5ccccc5)C(O)C(O)C4O)C(O)C3O)cc2)NC1=O` (stereo not drawn) [Example 101a], the “MIC Coagulase Negative Staphylococcus (GC 4547)” value [1] was 1 µg/mL (≈ 0.7 µM), the “MIC Coagulase Negative Staphylococcus (GC 4548)” value [1] was 1 µg/mL (≈ 0.7 µM) and the “MIC Coagulase Negative Staphylococcus (GC 4549)” value [1] was 1 µg/mL (≈ 0.7 µM). For the same compound, the “MIC Coagulase Negative Staphylococcus (GC 4551)” value [1] was 2 µg/mL (≈ 1.4 µM), the “MIC Coagulase Negative Staphylococcus (ID-3941)” value [1] was 1 µg/mL (≈ 0.7 µM) and the “MIC Staphylococcus aureus (ATCC 29213)” value [1] was 2 µg/mL (≈ 1.4 µM). For the same compound, the “MIC Staphylococcus aureus (GC 1131)” value [1] was 4 µg/mL (≈ 2.8 µM), the “MIC Staphylococcus aureus (GC 4541)” value [1] was 2 µg/mL (≈ 1.4 µM) and the “MIC Staphylococcus aureus (GC 4542)” value [1] was 4 µg/mL (≈ 2.8 µM). The “MIC Staphylococcus aureus (GC 4544)” value [1] was 4 µg/mL (≈ 2.8 µM), the “MIC Staphylococcus aureus (GC 4545)” value [1] was 4 µg/mL (≈ 2.8 µM) and the “MIC Staphylococcus aureus-SMITH (GC 4543)” value [1] was 8 µg/mL (≈ 5.6 µM). For the same compound, the “MIC Staphylococcus haemolyticus (GC 4546)” value [1] was 1 µg/mL (≈ 0.7 µM), the “MIC Staphylococcus haemolyticus (GC 4546)” value ([1]; strain GC 4546) was 1 µg/mL (≈ 0.7 µM) and the “MIC Coagulase Negative Staphylococcus (GC 4547)” value ([1]; strain GC 4547) was 1 µg/mL (≈ 0.7 µM). The “MIC Coagulase Negative Staphylococcus (GC 4548)” value ([1]; strain GC 4548) was 1 µg/mL (≈ 0.7 µM), the “MIC Coagulase Negative Staphylococcus (GC 4549)” value ([1]; strain GC 4549) was 1 µg/mL (≈ 0.7 µM) and the “MIC Coagulase Negative Staphylococcus (GC 4551)” value ([1]; strain GC 4551) was 2 µg/mL (≈ 1.4 µM). The “MIC Coagulase Negative Staphylococcus (ID-3941)” value ([1]; strain ID-3941) was 1 µg/mL (≈ 0.7 µM), the “MIC Staphylococcus aureus-SMITH (GC 4543)” value ([1]; strain SMITH GC 4543) was 8 µg/mL (≈ 5.6 µM) and the “MIC Staphylococcus aureus (ATCC 29213)” value ([1]; strain ATCC 29213) was 2 µg/mL (≈ 1.4 µM). For the same compound, the “MIC Staphylococcus aureus (GC 1131)” value ([1]; strain GC 1131) was 4 µg/mL (≈ 2.8 µM), the “MIC Staphylococcus aureus (GC 4541)” value ([1]; strain GC 4541) was 2 µg/mL (≈ 1.4 µM) and the “MIC Staphylococcus aureus (GC 4542)” value ([1]; strain GC 4542) was 4 µg/mL (≈ 2.8 µM). The “MIC Staphylococcus aureus (GC 4544)” value ([1]; strain GC 4544) was 4 µg/mL (≈ 2.8 µM), the “MIC Staphylococcus aureus (GC 4545)” value ([1]; strain GC 4545) was 4 µg/mL (≈ 2.8 µM) and the “MIC Enterococcus avium (GC 4558)” value ([2]; Enterococcus avium (GC 4558)) was 16 µg/mL (≈ 11.2 µM). For the same compound, the “MIC Enterococcus faecalis (ATCC 29212)” value [2, 5] was 16 µg/mL (≈ 11.2 µM), the “MIC Enterococcus faecalis (GC 2242)” value [2, 6] was 8 µg/mL (≈ 5.6 µM) and the “MIC Enterococcus faecalis (GC 4552)” value [2, 7] was 16 µg/mL (≈ 11.2 µM). For the same compound, the “MIC Enterococcus faecalis (GC 4553)” value [2, 8] was 16 µg/mL (≈ 11.2 µM), the “MIC Enterococcus faecalis (GC 4554)” value [2, 9] was 16 µg/mL (≈ 11.2 µM) and the “MIC Enterococcus faecium (GC 2243)” value ([2]; Enterococcus faecium (GC 2243)) was 16 µg/mL (≈ 11.2 µM). For the same compound, the “MIC Enterococcus faecium (GC 4556)” value ([2]; Enterococcus faecium (GC 4556)) was 16 µg/mL (≈ 11.2 µM), the “MIC Enterococcus faecium (GC 4557)” value ([2]; Enterococcus faecium (GC 4557)) was 2 µg/mL (≈ 1.4 µM) and the “MIC Enterococcus faecalis (ATCC 29212)” value ([2]; strain ATCC 29212) was 16 µg/mL (≈ 11.2 µM). The “MIC Enterococcus faecalis (GC 2242)” value ([2]; strain GC 2242) was 8 µg/mL (≈ 5.6 µM), the “MIC Enterococcus faecium (GC 2243)” value ([2]; strain GC 2243) was 16 µg/mL (≈ 11.2 µM) and the “MIC Enterococcus faecalis (GC 4552)” value ([2]; strain GC 4552) was 16 µg/mL (≈ 11.2 µM). The “MIC Enterococcus faecalis (GC 4553)” value ([2]; strain GC 4553) was 16 µg/mL (≈ 11.2 µM), the “MIC Enterococcus faecalis (GC 4554)” value ([2]; strain GC 4554) was 16 µg/mL (≈ 11.2 µM) and the “MIC Enterococcus faecium (GC 4556)” value ([2]; strain GC 4556) was 16 µg/mL (≈ 11.2 µM). The “MIC Enterococcus faecium (GC 4557)” value ([2]; strain GC 4557) was 2 µg/mL (≈ 1.4 µM), the “MIC Enterococcus avium (GC 4558)” value ([2]; strain GC 4558) was 16 µg/mL (≈ 11.2 µM) and the “MIC Escherichia coli (ATCC 25922)” value [3] was 64 µg/mL (≈ 44.8 µM). The “MIC Streptococcus agalactiae (GC 4564)” value [4, 10] was 1 µg/mL (≈ 0.7 µM), the “MIC Streptococcus pneumoniae (GC 4565)” value [4, 11] was <0.5 µg/mL and the “MIC Streptococcus pyogenes (ID-3187)” value [4, 12] was 1 µg/mL (≈ 0.7 µM). The “MIC Streptococcus agalactiae (GC 4564)” value ([4]; strain GC 4564) was 1 µg/mL (≈ 0.7 µM), the “MIC Streptococcus pneumoniae (GC 4565)” value ([4]; strain GC 4565) was <0.5 µg/mL and the “MIC Streptococcus pyogenes (ID-3187)” value ([4]; strain ID-3187) was 1 µg/mL (≈ 0.7 µM).
